In ChEMBL document CHEMBL5620396, “Phenotypic screening identifies a trisubstituted imidazo[1,2-a]pyridine series that induces differentiation in multiple AML cell lines” (Eur J Med Chem, 2023):
Calls of active or inactive are those of the source. The rule behind the calls is not given here.

Legend:
[1] = Solubility of compound at pH 1; format: physicochemical; details: buffer
[2] = Apparent permeability across apical to basolateral side in human Caco-2 cells; format: ADME, cell-based
[3] = tested on: HL-60; assay: Induction of differentiation in human HL-60 cells assessed as reduction in live cell number at 123 nM incubated for 4 days by acridine orange/DAPI staining based analysis; format: functional; details: time 4.0 day
[4] = tested on: ME-1; assay: Induction of differentiation in human ME-1 cells assessed as reduction in live cell number at 123 nM incubated for 4 days by acridine orange/DAPI staining based analysis; format: functional; details: time 4.0 day
[5] = tested on: Kasumi 1; assay: Induction of differentiation in human Kasumi 1 cells assessed as reduction in live cell number at 123 nM incubated for 4 days by acridine orange/DAPI staining based analysis; format: functional; details: time 4.0 day
[6] = tested on: THP-1; assay: Induction of morphological changes in human THP-1 cells assessed as variations in nuclear segmentation at 10 uM; format: functional, cell-based
[7] = tested on: THP-1; assay: Induction of morphological changes in human THP-1 cells assessed as appearance of granules and vacuoles at 10 uM; format: functional, cell-based
[8] = tested on: OCI-AML-3; assay: Induction of morphological changes in human OCI-AML-3 cells assessed as variations in cell size and shape at 10 uM; format: functional, cell-based
[9] = tested on: OCI-AML-3; assay: Induction of morphological changes in human OCI-AML-3 cells assessed as variations in nuclear:cytoplasmic ratio at 10 uM; format: functional, cell-based
[10] = tested on: KG-1; assay: Induction of morphological changes in human KG-1 cells assessed as appearance of granules and vacuoles at 10 uM; format: functional, cell-based
[11] = tested on: ME-1; assay: Induction of morphological changes in human ME-1 cells assessed as variations in cell size and shape at 10 uM; format: functional, cell-based
[12] = tested on: ME-1; assay: Induction of morphological changes in human ME-1 cells assessed as variations in nuclear segmentation at 10 uM; format: functional, cell-based
[13] = tested on: ME-1; assay: Induction of morphological changes in human ME-1 cells assessed as variations in nuclear:cytoplasmic ratio at 10 uM; format: functional, cell-based
[14] = tested on: Kasumi 1; assay: Induction of morphological changes in human Kasumi 1 cells assessed as appearance of granules and vacuoles at 10 uM; format: functional, cell-based
[15] = Dose normalized AUC (0 to 8 hrs) in CD-1 mouse at 3 mg/kg, po administered as single dose and measured over 24 hrs; format: ADME, organism-based; details: in vivo
[16] = AUC (0 to 8 hrs) in CD-1 mouse at 1 mg/kg, po administered as repeated dose on day 1 and 4; format: ADME, organism-based; details: in vivo, time 4 day

solubility [1]: > 100 µM
Papp A→B [2]: 16 ×10⁻⁶ cm/s
AUC/dose [15]: 1021 ng·h/mL
AUC(0-t) at 96 h [16]: 731 ng·h/mL
SMILES: Cc1cc(F)ccc1-c1cc(NS(C)(=O)=O)c2ncc(-c3ccc4c(cnn4C)c3)n2c1
Activity [3]: Active
Activity [4]: Active
Activity [5]: Active
Activity [6]: Active
Activity [7]: Active
Activity [8]: Active
Activity [9]: Active
Activity [10]: Active
Activity [11]: Active
Activity [12]: Active
Activity [13]: Active
Activity [14]: Active
